# Experimental data reported in DBAASP.
# Experiments:
# Test in all cases: ≥ marks a high value that may be exact or a test limit, other limits are often not marked, values filed in µg/mL are converted to µM
# [1] = tested on: Candida albicans ATCC 10231
# [2] = tested on: Candida tropicalis PCM 2681
# [3] = tested on: Staphylococcus aureus ATCC 25923
# [4] = tested on: Bacillus subtilis ATCC 6633
# [5] = tested on: Pseudomonas aeruginosa ATCC 9027
# [6] = tested on: Staphylococcus epidermidis ATCC 14490
# [7] = tested on: Klebsiella pneumoniae ATCC 200603
# [8] = tested on: Escherichia coli ATCC 25922
# Sporothrix schenckii = tested on: Sporothrix schenckii
# Staphylococcus aureus MR = tested on: Staphylococcus aureus MR
# [9] = tested on: Escherichia coli ATCC 10536
# [10] = tested on: Trichophyton mentagrophytes
# [11] = tested on: Staphylococcus epidermidis NRRL B-4268
# [12] = tested on: Pseudomonas aeruginosa ATCC BAA-427
# Aspergillus fumigatus = tested on: Aspergillus fumigatus
# [13] = tested on: Klebsiella pneumoniae ATCC 27736
# Candida albicans = tested on: Candida albicans
# [14] = tested on: Staphylococcus aureus ATCC 9144
# Cryptococcus neoformans = tested on: Cryptococcus neoformans
# [15] = tested on: Candida parapsilosis ATCC 22019
# Candida albicans LM106 = tested on: Candida albicans LM106
# Aspergillus flavus LM247 = tested on: Aspergillus flavus LM247
# [16] = tested on: Trichophyton rubrum LM640
# Aspergillus flavus LM26 = tested on: Aspergillus flavus LM26
# Candida albicans LM108 = tested on: Candida albicans LM108
# [17] = tested on: Candida tropicalis ATCC 13803
# [18] = tested on: Pseudomonas aeruginosa ATCC 47085
# Salmonella typhimurium = tested on: Salmonella typhimurium
# Pseudomonas aeruginosa = tested on: Pseudomonas aeruginosa
# Serratia marcescens = tested on: Serratia marcescens
# [19] = tested on: Trichophyton rubrum KCTC 6345
# Bacillus subtilis = tested on: Bacillus subtilis
# Pseudomonas aeruginosa 1 = tested on: Pseudomonas aeruginosa 1
# [20] = tested on: Escherichia coli ATCC 23716
# Bacillus subtilis SMY = tested on: Bacillus subtilis SMY
# [21] = tested on: Candida albicans ATCC 90028
# Streptococcus pneumoniae = tested on: Streptococcus pneumoniae
# Pseudomonas putida = tested on: Pseudomonas putida
# Saccharomyces cerevisiae = tested on: Saccharomyces cerevisiae
# [22] = tested on: Escherichia coli O157:H7 ATCC 43895
# [23] = tested on: Trichosporon beigelii KCTC 7707
# [24] = tested on: Salmonella typhimurium ATCC 19430
# Streptococcus mutans = tested on: Streptococcus mutans
# Escherichia coli = tested on: Escherichia coli
# Staphylococcus aureus 1 = tested on: Staphylococcus aureus 1
# [25] = tested on: Pseudomonas aeruginosa ATCC 27853
# [26] = tested on: Enterococcus faecium ATCC 19434
# [27] = tested on: Fusarium graminearum PH-1
structure (smiles),measurement,setting,value
NC(=O)CC[C@H](NC(=O)[C@H](CCC(N)=O)NC(=O)[C@H](CCC(=O)O)NC(=O)[C@H](Cc1ccccc1)NC(=O)[C@H](CCC(=O)O)NC(=O)[C@H](Cc1c[nH]c2ccccc12)NC(=O)[C@H](CCC(=O)O)NC(=O)[C@H](Cc1ccccc1)NC(=O)[C@H](CCCN=C(N)N)NC(=O)[C@H](CCC(N)=O)NC(=O)[C@@H](N)CCC(N)=O)C(N)=O [QQRFEWEFEQQ],MIC,[1],> 329 µM
same,MIC,[2],≥ 329 µM
same,MIC,[3],> 329 µM
same,MIC,[4],≥ 329 µM
same,MIC,[5],> 329 µM
same,MIC,[6],≥ 329 µM
same,MIC,[7],≥ 329 µM
same,MIC,[8],> 329 µM
CC(C)C[C@H](NC(=O)[C@H](CCCCN)NC(=O)[C@H](CC(C)C)NC(=O)[C@H](Cc1ccccc1)NC(=O)[C@H](CCCN=C(N)N)NC(=O)[C@H](CCCN=C(N)N)NC(=O)[C@H](Cc1ccccc1)NC(=O)[C@H](Cc1c[nH]c2ccccc12)NC(=O)[C@H](CCCCN)NC(=O)[C@H](CCCN=C(N)N)NC(=O)[C@H](Cc1ccccc1)NC(=O)[C@H](CCCN=C(N)N)NC(=O)[C@H](CCCN=C(N)N)NC(=O)[C@@H](N)Cc1ccccc1)C(=O)N[C@@H](Cc1ccccc1)C(N)=O [FRRFRKWFRRFLKLF],MIC,Sporothrix schenckii,3 µM
same,MIC,Staphylococcus aureus MR,25 µM
same,MIC,[9],6 µM
same,MIC,[10],3 µM
same,MIC,[11],13.2 µM
same,MIC,[12],25 µM
same,MIC,Aspergillus fumigatus,3 µM
same,MIC,[4],11.3 µM
same,MIC,[13],6 µM
same,MIC,Candida albicans,3.1 µM
same,MIC,[14],6.25 µM
same,MIC,Cryptococcus neoformans,6.1 µM
same,MIC,[15],3 µM
CC[C@H](C)[C@H](NC(=O)CNC(=O)[C@@H](NC(=O)[C@H](Cc1ccccc1)NC(=O)[C@H](CC(=O)O)NC(=O)[C@H](CCSC)NC(=O)[C@H](CC(=O)O)NC(=O)[C@H](C)N)[C@@H](C)O)C(=O)N[C@@H](C)C(=O)N[C@@H](CCC(=O)O)C(=O)N[C@@H](CO)C(=O)N[C@H](C(=O)N[C@H](C(=O)N[C@@H](CCCCN)C(=O)N[C@@H](CCCCN)C(=O)N[C@H](C(=O)N[C@@H](CCCCN)C(=O)N[C@@H](CCC(=O)O)C(=O)N[C@H](C(=O)N[C@@H](CC(N)=O)C(=O)N[C@@H](C)C(=O)N[C@@H](CCCCN)C(=O)N1CCC[C@H]1C(=O)N1CCC[C@H]1C(=O)N[C@@H](C)C(=O)O)[C@@H](C)O)[C@@H](C)CC)[C@@H](C)CC)[C@@H](C)CC [ADMDFTGIAESIIKKIKETNAKPPA],MIC,Candida albicans LM106,≥ 47.6 µM
same,MIC,Aspergillus flavus LM247,≥ 47.6 µM
same,MIC,[16],≥ 381 µM
same,MIC,Aspergillus flavus LM26,≥ 47.6 µM
same,MIC,Candida albicans LM108,≥ 381 µM
same,MIC,[17],≥ 47.6 µM
CC(C)C[C@H](NC(=O)CN)C(=O)N[C@@H](CC(C)C)C(=O)N[C@@H](CCCN=C(N)N)C(=O)N[C@@H](CCCCN)C(=O)N[C@@H](Cc1c[nH]c2ccccc12)C(=O)NCC(=O)N[C@@H](CCCCN)C(=O)N[C@@H](CCCCN)C(=O)N[C@@H](Cc1c[nH]c2ccccc12)C(=O)N[C@@H](CCCCN)C(=O)N[C@@H](CCC(=O)O)C(=O)N[C@@H](Cc1ccccc1)C(=O)N[C@@H](CC(C)C)C(=O)N[C@@H](CCCN=C(N)N)C(=O)N[C@@H](CCCN=C(N)N)C(=O)N[C@H](C(=O)N[C@@H](Cc1c[nH]c2ccccc12)C(=O)N[C@@H](CCCCN)C(N)=O)C(C)C [GLLRKWGKKWKEFLRRVWK],MIC,[3],12.7 µM
same,MIC,[18],12.7 µM
CC(C)C[C@H](NC(=O)CNC(=O)[C@H](C)N)C(=O)N[C@@H](CCC(N)=O)C(=O)N[C@@H](Cc1ccccc1)C(=O)N1CCC[C@H]1C(=O)N[C@H](C(=O)NCC(=O)N[C@@H](CCCN=C(N)N)C(=O)N[C@H](C(=O)N[C@@H](Cc1cnc[nH]1)C(=O)N[C@@H](CCCN=C(N)N)C(=O)N[C@@H](CC(C)C)C(=O)N[C@@H](CC(C)C)C(=O)N[C@@H](CCCN=C(N)N)C(=O)N[C@@H](CCCCN)C(=O)O)C(C)C)C(C)C [AGLQFPVGRVHRLLRK],MIC,Salmonella typhimurium,1.08 µM
same,MIC,Pseudomonas aeruginosa,12.5 µM
same,MIC,Serratia marcescens,1.08 µM
same,MIC,[19],12.5 µM
same,MIC,Bacillus subtilis,2.17 µM
same,MIC,Pseudomonas aeruginosa 1,6.3 µM
same,MIC,[20],≥ 139 µM
same,MIC,Bacillus subtilis SMY,≥ 139 µM
same,MIC,[21],12.5 µM
same,MIC,Streptococcus pneumoniae,2.17 µM
same,MIC,Pseudomonas putida,2.17 µM
same,MIC,Saccharomyces cerevisiae,4.33 µM
same,MIC,[3],25 µM
same,MIC,[22],6.3 µM
same,MIC,[23],12.5 µM
same,MIC,[24],6.3 µM
same,MIC,Candida albicans,4.33 µM
same,MIC,Streptococcus mutans,2.17 µM
same,MIC,Escherichia coli,2.17 µM
same,MIC,Staphylococcus aureus 1,12.5 µM
same,MIC,[25],12.5 µM
same,MIC,Cryptococcus neoformans,4.33 µM
same,MIC,[15],25 µM
same,MIC,[26],25 µM
C[C@@H]1NC(=O)[C@@H](NC(=O)[C@@H]2CCCN2C(=O)CN)CSSC[C@@H](C(=O)O)NC(=O)[C@H](CC(N)=O)NC(=O)[C@H](Cc2cnc[nH]2)NC(=O)[C@H](CC(=O)O)NC(=O)[C@H](CO)NC1=O [GPCASDHNC],MIC,[27],≥ 48 µM
